Reference: patent US8110217B2, “Sphingomyelin liposomes for the treatment of hyperactive bladder disorders” (priority 2001, dated 2012)
Several values for one entry are separate records, joined by “and”; a condition that tells them apart may be missing. Equal entries are not always repeated. Entries after “also recorded” stand apart in the source; their conditions may differ.

Test system: acute hyperactive bladder
Assay: Continuous CMG, acute hyperactive bladder model with intravesical PS and KCl (Examples 7-8)
Assay type: in vivo, female Sprague-Dawley rats
Protocol: An animal model for acute hyperactive bladder in rats was developed using intravesical infusion of PS, an agent used to break down urothelial barrier function and physiological concentrations of KCl.
Continuous CMGs were performed in urethane-anesthetized female rats. The bladder was filled (0.04 ml/min) with normal saline followed by intravesical infusion for a 60 minute period with a test solution comprising either KCl (100 or 500 mM) or PS (10 or 30 mg/ml). Following this, 10 mg/ml PS treated animals were infused intravesically with 100, 300 or 500 mM KCl. Some animals were pretreated with capsaicin ([…], sc) four days before the experiments.
Animal Preparation. The study was performed on 40 female Sprague-Dawley rats weighing 250-300 gm. Animals were anesthetized with 1.2 gm/kg urethane injected subcutaneously. Body temperature was maintained in the physiological range using a heating lamp.
Cystometrogram (CMG). PE-50 tubing (Clay-Adams, Parsippany, N.J.) was inserted into the bladder through the urethra and connected via a three-way stopcock to a pressure transducer and to a syringe pump. This was used for recording intravesical pressure and for infusing solutions into the bladder. A control CMG was performed by slowly filling the bladder with saline (0.04 ml/min) to elicit repetitive voiding. The amplitude, PT, compliance and intercontraction interval (ICI) of reflex bladder contractions were recorded. Pressure threshold (PT) represents the pressure that induces the initial bladder contraction. PT often has been used as a parameter corresponding to afferent nerve activity for the induction of reflex bladder contractions. Measurements in each animal represented the average of 3 to 5 bladder contractions.
After performing control CMGs with saline infusion, three intravesical infusion experiments were performed in parallel: (1) infusion of KCl (100 or 500 mM in saline) for one hour (N=4 in each group); (2) infusion of PS (Sigma Chemical Co.; 30 mg/ml in saline) for one hour (N=6); and (3) infusion of PS (10 mg/ml) for one hour, followed by 100, 300 or 500 mM KCl for one hour (N=6, in each subgroup). In four animals, capsaicin dissolved in a vehicle containing 10% ethanol, 10% TWEEN®80 and 80% physiological saline, at a concentration of 20 mg/ml was given subcutaneously in divided doses on 2 consecutive days. The doses included 25 and 50 mg/kg at a 12-hour interval on the first day and 50 mg/kg on the second day, as previously described (C. L. Cheng et al., 1993, Am. J. Physiol. 265:R132-138). All injections were performed under halothane anesthesia. Four days after the last dosage of capsaicin, the animals were anesthetized and treated with intravesical administration of PS (10 mg/ml) for 1 hour followed by KCl (500 mM) infusion.
Suppression of Micturition Reflex. To evaluate the direct effects of potassium on detrusor muscle, micturition reflex was blocked in 4 animals by either intravenous hexamethonium injection (25 mg/kg) (N=2) or transection of bilateral pelvic nerves (N=2).
Statistical Analysis. Statistical analyses were performed using Student's t test for paired or unpaired data, as applicable, with p<0.05 considered significant. Quantitative data are expressed in Example 8 (below) as means plus or minus standard error.

[1] = 100 mM KCl alone, one hour, N=4
[2] = 100 mM KCl following 10 mg/ml PS, N=6
[3] = 300 mM KCl following 10 mg/ml PS, N=6
[4] = 300 mM KCl following PS 10 mg/ml
[5] = 500 mM KCl alone, one hour, N=4
[6] = 500 mM KCl following 10 mg/ml PS, N=6
[7] = 500 mM KCl following PS 10 mg/ml
[8] = KCl 500 mM 1 hr after one hour PS 10 mg/ml, capsaicin pretreated animals, N=4
[9] = KCl 500 mM 2 hr after one hour PS 10 mg/ml, capsaicin pretreated animals, N=4
[10] = KCl 500 mM following PS 10 mg/ml, micturition reflex suppressed animals
[11] = capsaicin pretreated animals, PS 10 mg/ml then KCl 500 mM, 2 hours of infusion

For `[Cl-].[K+]` [KCl], the Amplitude [1] was 28.2 ± 0.5 cm H2O, the Compliance [1] was 0.205 ± 0.032 ml/cm H2O and the ICI [1] was 13.8 ± 2.0 min. The PT [1] was 5.9 ± 0.5 cm H2O, the Amplitude [2] was 28.2 ± 3.7 cm H2O and the Compliance [2] was 0.157 ± 0.022 ml/cm H2O. The ICI [2] was 18.8 ± 2.1 min, the PT [2] was 3.0 ± 1.3 cm H2O and the Amplitude [3] was 31.3 ± 0.7 cm H2O. For the same compound, the Compliance [3] was 0.066 ± 0.012 ml/cm H2O, the ICI [3] was 5.2 ± 1.7 min and the PT [3] was 3.3 ± 0.9 cm H2O. For the same compound, the ICI decrease [4] was 76.9%, the compliance decrease [4] was 60% and the contraction amplitude increase [4] was 23.7%. For the same compound, the “onset of irritation (delay)” value [4] was 20 to 30 min, the Amplitude [5] was 28.8 ± 1.2 cm H2O and the Compliance [5] was 0.237 ± 0.023 ml/cm H2O. For the same compound, the ICI [5] was 15.8 ± 2.4 min, the PT [5] was 8.2 ± 0.9 cm H2O and the Amplitude [6] was 29.5 ± 3.4 cm H2O. The Compliance [6] was 0.075 ± 0.009 ml/cm H2O, the ICI [6] was 3.2 ± 1.3 min and the PT [6] was 5.4 ± 1.0 cm H2O. For the same compound, the ICI decrease [7] was 82.9%, the compliance decrease [7] was 63.4% and the contraction amplitude increase [7] was 21.4%. The “onset of irritation (delay)” value [7] was 10 to 15 min, the “PT change” value (300 or 500 mM KCl following PS 10 mg/ml) was “not significantly altered” and the Amplitude [8] was 20.3 ± 0.3 cm H2O. For the same compound, the Compliance [8] was 0.218 ± 0.013 ml/cm H2O, the ICI [8] was 21.3 ± 2.8 min and the PT [8] was 5.8 ± 0.5 cm H2O. The Amplitude [9] was 16.0 ± 1.7 cm H2O, the Compliance [9] was 0.100 ml/cm H2O and 0.100 ± 0.016 ml/cm H2O and the ICI [9] was 13.1 ± 2.8 min. The PT [9] was 7.6 ± 1.7 cm H2O, the Compliance [10] was 0.041±0.011 ml/cm H2O and the compliance decrease [10] was 55.9%. The “detrusor muscle / bladder compliance” value [10] was “stimulated the detrusor muscle and decreased bladder compliance”, the “irritative effects / CMG parameters” value (KCl 100 or 500 mM alone) was “not observed; also recorded: not significantly different from those during saline administration” and the ICI decrease [11] was 36%. For the same compound, the compliance decrease [11] was 55%, the “bladder hyperactivity” value (high concentrations of KCl (300/500 mM) following one hour of PS 10 mg/ml) was “induced bladder hyperactivity (decrease ICI)” and the “CMG parameters” value (low concentration KCl (100 mM), one hour, following PS 10 mg/ml) was “did not produce significant changes in the CMG parameters; also recorded: had no effect”.
